Assay results reported in patent US7259140B2, “Heparin-binding peptides and uses thereof” (Thomas Jefferson University, priority 2003, dated 2007).
Entries after “also recorded” stand apart in the source; their conditions may differ. Ends that are not written are not given here.

What was measured:
[1] = Affinity coelectrophoresis (ACE) of peptide binding to radiolabeled low Mr heparin; parameters: species or system pig
From the text: Preparation of Radiolabeled Heparin. Whole heparin from pig intestinal mucosa (Sigma) was tyramine end-labeled and radiolabeled with Na^125I (Amersham, Pharmacia Biotech, Inc., Piscataway, N.J.) to an average specific activity≅1.0×10^7 CPM/μg as described (San Antonio, J. D., et al., Biochemistry, 32:4746-4755, 1993). Radiolabeled heparin was fractionated on Sephadex G-100 (Bio-Rad Laboratories, Hercules, Calif.) and the final≅12% of material to elute was retained as the low Mr material of ≦6,000 (Jordan, R., D. Beeler, and R. Rosenberg, J. Biol. Chem., 254:2902-2913, 1979; Laurent, T. C., et al., Biochem. J., 175:691-701, 1978).
Analysis of Peptide-Heparin Interactions by Affinity Coelectrophoresis (ACE). ACE was used to study interactions between peptides and low molecular weight (low Mr) heparin (WO00/45831). In ACE, trace concentrations of radiolabeled heparin are electrophoresed through agarose lanes containing peptides at various concentrations. These analyses are used to determine the dissociation constants (Kd's). The electrophoretic patterns of radiolabeled heparin are then visualized using a phosphorimager, and the dissociation constant (Kd) corresponds to the protein concentration at which the heparin is half shifted from being fully mobile at very low protein concentrations to maximally retarded at saturating protein concentrations. The lower the Kd value, the higher the affinity.
Binding of radiolabeled heparin to peptides was studied by ACE as detailed elsewhere (San Antonio, J. D., et al., Biochemistry, 32:4746-4755, 1993). […] Briefly, peptides were dissolved in 1×ACE running buffer, 50 mM sodium 3-(N-morpholino)-2-hydroxypropanesulfonate (MOPSO, Sigma)/125 mM sodium acetate, pH 7.0, and serially diluted in running buffer at 2× concentrations. Peptides were then mixed 1:1 with 2% agarose/1% CHAPS, 3-[(3-cholamidopropyl)dimethylammonio]-1-propanesulfonate, (Boehringer Mannheim, Indianapolis, Ind.), and loaded into wells of a 1% agarose gel. Radiolabeled heparin was then loaded in a slot on the anode side of the gel, and electrophoresed through the peptide-containing wells, towards the cathode. Gels were dried and PG mobility was measured with a Phosphorimager (Molecular Dynamics, Sunnyvale, Calif.) by scanning each protein lane and determining the relative radioactivity content per 88-μm pixel through the length of the lane. Retardation coefficient (R) measurements, binding isotherm curve fittings, and apparent Kd value determinations were calculated as detailed previously (Lee, M. K., and A. D. Lander, Proc. Natl. Acad. Sci. USA, 88:2768-2772, 1991; San Antonio, J. D., et al, Biochemistry, 32:4746-4755, 1993).
Retardation coefficients (R) for the migration of low Mr 1^25I-tyramine-heparin through peptides were determined from ACE gel electrophoretograms, and are plotted against peptide concentration. Smooth curves represent non-linear least-squares fits to the equation R=R∞/{1+(Kd/[peptide])^n}.

[2] = test system: platelets; experiment: Platelet aggregation with aggregation-inducing agents; type: cell-based, human; settings: 12 μg/ml; Lovenox 0.5 U/ml; collagen, ADP, ristocetin, epinephrine, SFFLRN, A23187
Procedure: Plasma from six volunteers was tested with various aggregation inducing agents, at several concentrations of each agent, and with six different peptides of the invention. The effect of heparin-binding peptides of the invention on platelet aggregation was determined using standard procedures as previously described. The six peptides which were synthesized and tested were: (ARKKAAKA)4 (SEQ ID NO:31), ARKKAAKA(A16)ARKKAAKA (SEQ ID NO:30), (ARKKAAKA)3ARKKCAKA (SEQ ID NO:33), (ARKKAAKA)3VLVLVLVL (SEQ ID NO:5), C(ARKKAAKA)4C (SEQ ID NO:34), and (AKKARA)6 (SEQ ID NO:32).
The aggregation-inducing agents tested were: collagen, adenosine diphosphate (ADP), ristocetin, epinephrine, the thrombin receptor peptide SFFLRN, and calcium ionophore A23187. Platelets were subjected to protamine, or to SEQ ID NOS:31, 33, 30, 5, 34, or 32 at 12 μg/ml, and Lovenox® at 0.5 U/ml. Platelet aggregation in response to agonists was monitored and percent aggregation was determined over a five minute interval.
The agonist was added after equilibration of the platelets for one minute.

[3] = Hemodynamic effects in rats without prior Lovenox; settings: no Lovenox
[4] = test system: anti-Factor Xa Activity of the Low Molecular Weight Heparin Lovenox ®; experiment: Anti-Factor Xa assay (Stachrom Heparin kit): neutralization of Lovenox in citrate or plasma in vitro; type: biochemical, human; settings: in both citrate and plasma
Procedure: (§1) The ability of peptides such as (ARKKAAKA)3VLVLVLVL (SEQ ID NO:5) to neutralize the anti-Factor Xa activity of UFH and LMWH in vitro was tested using the Stachrom Heparin kit (Diagnostica Stago), a standard hematology laboratory assay used to measure the anti-Factor Xa activity of heparin. The assay was performed using the low molecular weight heparin enoxaparin sodium (Lovenox®, Aventis Pharmaceuticals, Inc.), unfractionated heparin (UFH), or the non-heparin glycosaminoglycan danaparoid sodium (Orgaran®, Organon Inc., West Orange, N.J.) in 0.32% citrate or in plasma anticoagulated with 0.32% citrate. Enoxaparin is commonly used clinically as a low molecular weight heparin (LMWH). Danaparoid is commonly used clinically as a non-heparin glycosaminoglycan anticoagulant. Currently, the only FDA approved drug to target UFH is protamine, which is not effective in vivo against LMWH or a non-heparin glycosaminoglycan such as danaparoid. Buffer and ATIII are added to form the heparin/ATIII complex, peptide is added, then Factor Xa, reporter dye substrate for Factor Xa activity, and stop solution, and the dye concentration is read at 405 nm. The absorbance of the dye increases with increasing Factor Xa activity, and thus is inversely proportional to the heparin (anti-Factor Xa activity) concentration. Peptides were tested in plasma obtained from three volunteers (A, B, and C). Platelet function inhibitors PG12 and theophylline were added to the blood immediately upon collection.
Results. […] (ARKKAAKA)3VLVLVLVL (SEQ ID NO:5) and VLVL(ARKKAAKA)3ARKKCAKA (SEQ ID NO:38) were able to neutralize about 0.4 U/ml anti-Factor Xa activity of LMWH at a concentration of 12 μg/ml, which would be an effective dose for patients. (AKKARA)6 (SEQ ID […]), (ARKKAAKA)4 (SEQ ID NO:31) and (ARKKAAKA)3ARKKCAKA […] 0.3-0.35 U/ml. In contrast, 12 μg protamine only neutralized about 0.25 U/ml of LMWH under these conditions.

[5] = test system: anti-Factor Xa Activity of Unfractionated Heparin; experiment: Anti-Factor Xa assay: neutralization of unfractionated heparin in citrate or plasma in vitro; type: biochemical, human; settings: in both citrate and plasma
Procedure: as §1, with “collection. […]” for “collection.”

[6] = Hemodynamic effects in rats after administration of the LMWH Lovenox; settings: in the presence of LMWH Lovenox
Procedure: Next, experiments were performed in which the animals were treated with the peptides after the administration of the LMWH Lovenox®, as would happen in the clinical situation, because binding of peptides to LMWH would be expected to reduce the effects of the peptides on hemodynamic function.

[7] = test system: Lovenox ® Activity in Blood from Patients Treated with Lovenox ®; experiment: Neutralizing Lovenox activity in blood from patients treated with Lovenox (anti-Factor Xa assay); type: biochemical, human; settings: Peptide 12 μg/ml
Procedure: Blood was obtained from volunteers who were being treated with Lovenox® for their medical conditions after obtaining signatures on informed consent forms as approved by the Institutional Review Board. The assays to test neutralization of Lovendx® were performed as described for Table 2. A dose response from 1-60 μg/ml was evaluated as in Table 2.
The dose response pattern for the effective peptides was similar to the dose response in control plasma to which Lovenox® had been added. Each data point represents the mean and standard deviation of triplicate analyses on the same sample of blood from each patient.

Q: For “(ARKKAAKA)4VLVLVLVL (ARKKAAKAARKKAAKAARKKAAKAARKKAAKAVLVLVLVL; Fragment) [SEQ ID NO:1]”, which “affinity for low molecular weight heparin” value [1] is on record?
A: The value was “high affinity”.

Q: What does the source list for “AKKARAAKKARAAKKARAAKKARAAKKARAAKKARA [(AKKARA)6]”?
A: effect on platelet aggregation [2]: no significant inhibition or enhancement of aggregation; reduction/drop of blood pressure ([3]; 2 mg per rat (300-350 grams)): about 30 mm Hg; time to nadir of blood pressure ([3]; 2 mg per rat): 2 min

Q: Which results are given for “ARKKAAKA (Fragment) [monomer, control peptide, reference compound]”?
A: affinity for low molecular weight heparin [1]: negligible affinity; effect in the anti-Factor Xa assay for Lovenox [4]: no effect; effect in the anti-Factor Xa assay for UFH [5]: no effect

Q: Which “effect on platelet aggregation” value [2] does the source give for “ARKKAAKAARKKAAKAARKKAAKAARKKCAKA [(ARKKAAKA)3ARKKCAKA, (ARKKAAKA)3(ARKKCAKA)]” here?
A: Its value is “no significant inhibition or enhancement of aggregation”.

Q: What about the “effect on blood pressure” value ([3]; 2 mg per rat) of the same substance?
A: The value was “did not cause a change in blood pressure”.

Q: And the “effect on blood pressure and heart rate / toxicity” value [6]?
A: The value was “no significant effect on blood pressure and heart rate; also recorded: All rats tested showed no response to peptide”.

Q: Which Kd ([1]; pH 7.0, mean and standard deviation of four assays, read-out: Kd (nM), affinity for low molecular weight heparin) does the source give for VLVLARKKAAKAPARKKAAKAVLVL here?
A: The Kd was 5220 ± 1550 nM.

Q: And the “Lovenox ® Neutralized” value ([7]; blood of Lovenox-treated Patient Number 1)?
A: Its value is 0.027 U/ml.

Q: What about the “Lovenox ® Neutralized” value ([7]; blood of Lovenox-treated Patient Number 2) of the same substance?
A: The value was 0.012 U/ml.

Q: What about the “Lovenox ® Neutralized” value ([7]; blood of Lovenox-treated Patient Number 3) of the same substance?
A: Its value is 0.021 U/ml.

Q: What about the “Lovenox ® Neutralized” value ([7]; blood of Lovenox-treated Patient Number 4) of the same substance?
A: The value was 0.022 U/ml.

Q: And the “Lovenox ® Neutralized” value ([7]; blood of Lovenox-treated Patient Number 5)?
A: Its value is 0 U/ml.

Q: What about the “Lovenox ® Neutralized” value ([7]; blood of Lovenox-treated Patient Number 8) of the same substance?
A: The value was 0.018 U/ml.

Q: And the “Lovenox ® Neutralized” value ([7]; blood of Lovenox-treated Patient Number 9)?
A: Its value is 0.007 U/ml.

Q: What about the “Lovenox ® Neutralized” value ([7]; blood of Lovenox-treated Patient Number 10) of the same substance?
A: The value was 0.025 U/ml.

Q: And the “Lovenox ® Neutralized” value ([7]; blood of Lovenox-treated Patient Number 11)?
A: Its value is 0.050 U/ml.
